Source: patent publication US9487538B2, “Two-carbon linked artemisinin-derived trioxane dimers” (THE JOHNS HOPKINS UNIVERSITY, priority 2013, dated 2016)

How the values were obtained:
[1] = test system: P. berghei ANKA strain; assay: animal or person; assay type: in vivo; conditions: for average survival time of all mice receiving the compound: over both experiments, artemether: combination therapy groups
Experimental: Nearly all of the two-carbon linked dimer analogs were evaluated in Plasmodium berghei infected mice using a 60-day survival study. Each trioxane (0.64 mg) and mefloquine hydrochloride (1.92 mg) were dissolved in 100 μL of 7:3 Tween:EtOH mixture, and the mixture was further diluted with 965 μL of water (total volume of 1065 μL). Twenty-four hours after infection with P. berghei ANKA strain (2×10^7 parasitized erythrocytes), each of four 5-week old C57BL/6J mice (Jackson Laboratory, weighing approximately 20 g each) received 200 μL of the trioxane solution via oral gavage, corresponding to a dose of 6 mg/kg of trioxane and 18 mg/kg of mefloquine hydrochloride. Blood parasitemia levels and duration of animal survival as compared to survival time of animals receiving no drug were monitored, both being widely accepted measures of a drug's antimalarial efficacy.
A second mouse experiment was initiated to further evaluate several of the lead compounds. An alternative adjuvant to establish a broader understanding of the efficacy of these compounds also was evaluated. […] As summarized in Table 2, all of the lead compounds outperformed the drug artemether (4b), which prolonged survival to an average of 38.5 days and 19.0 days in combination with mefloquine and lumefantrine, respectively. One mouse receiving dimer methyl oxime Z-29 and mefloquine died early in the experiment (day 16) while the other three lived to day 60, an average of 49.0 days. Dimer methyl oxime Z-29 was, however, was marginally effective in combination with lumefantrine (26.3 day average) and not effective as a monotherapy, with an average survival time (8.3 days) similar to that of infected mice receiving no drug (8.8 days). Dimer allyl oxime 30 was efficacious in all three groups, extending survival time to 49.0 days, 41.3 days, and 46.8 days in combination with mefloquine, lumefantrine, or as a monotherapy, respectively. […] One mouse receiving mefloquine combination died at an extended time point (35 days) while the other three survived the entire 60 days, an average of 53.8 days. All four mice receiving lumefantrine combination survived the entire 60 days. […] The monotherapy dose prolonged survival time to 46.8 days, similar to that of dimer allyl oxime 30.

[2] = test system: P388 leukemia; conditions: NCI Report, tested on 25 Oct. 1983; cited from earlier work
[3] = test system: cell line panels consisting of 60 lines (nine disease-related subpanels); conditions: 60 cell lines; cited from earlier work
[4] = Table 2, trioxane 6 mg/kg + mefloquine 18 mg/kg
[5] = Table 1, trioxane 6 mg/kg + Mef-HCl 18 mg/kg, single oral dose
[6] = Table 1, trioxane 6 mg/kg + Mef-HCl 18 mg/kg, determined on day 3 post infection
[7] = Table 2, trioxane 6 mg/kg + lumefantrine 18 mg/kg
[8] = Table 2, trioxane 150 mg/kg, adjuvant none (monotherapy)
[9] = first experiment, trioxane 6 mg/kg + mefloquine hydrochloride 18 mg/kg, four mice

| SMILES | % parasitemia suppression [1, 4] | survival after infection avg [1, 4] | survival after infection avg [1, 5] | % parasitemia suppression [1, 6] | also measured |
| --- | --- | --- | --- | --- | --- |
| CO/N=C(\C[C@H]1O[C@H](OC)[C@@]23OC(C)C2C(C)C[C@H]3[C@H]1C)[C@H]1O[C@H](OC)[C@@]23OC(C)C2C(C)C[C@H]3[C@H]1C (stereo partly drawn) [E-29, Dimer O-Methyl Oxime] | >99.9% | 37.0 days | – | – | – |
| CO/N=C(/C[C@H]1O[C@H](OC)[C@@]23OC(C)C2C(C)C[C@H]3[C@H]1C)[C@H]1O[C@H](OC)[C@@]23OC(C)C2C(C)C[C@H]3[C@H]1C (stereo partly drawn) [Z-29, Dimer O-Methyl Oxime] | >99.9% | 49.0 days | 60.0 days | >99.9% | inhibition in vivo at 150 mg/kg ([1]; Plasmodium berghei, in Mus musculus, po, Table 2, trioxane 150 mg/kg, adjuvant none (monotherapy), read-out: % parasitemia suppression): 98%; % parasitemia suppression [1, 7]: >99.9%; survival after infection avg [1, 7]: 26.3 days; survival after infection avg [1, 8]: 8.3 days; cure of mice [1, 9]: complete cures of all four mice |
| CO[C@H]1O[C@@H]2O[C@@]3(C)CC[C@H]4[C@H](C)CC[C@@H]([C@H]1C)[C@@]24OO3 [artemether (4b), artemether, reference compound] | >99.9% | 38.5 days | 40.0 days | >99.9% | % parasitemia suppression [1, 7]: >99.9%; survival after infection avg [1, 7]: 19.0 days; average survival time of all mice receiving the compound [1]: 31.7 days |
| C[C@@H]1CC[C@H]2[C@@H](C)C(=O)O[C@@H]3O[C@@]4(C)CC[C@@H]1[C@]32OO4 [artemisinin] | – | – | – | – | activity against P388 leukemia [2]: inactive; anticancer activity [3]: modest anticancer activity |
| C[C@H]1[C@@H](C(=O)C[C@H]2O[C@@H]3O[C@]4(C)CC[C@H]5[C@H](C)CC[C@@H]([C@H]2C)[C@@]35OO4)O[C@@H]2O[C@]3(C)CC[C@H]4[C@H](C)CC[C@@H]1[C@@]24OO3 [compound 24, Artemisinin Two-Carbon Linked Dimer Ketone] | – | – | 48.3 days | >99.9% | – |
| CO[C@H]1O[C@H](/C(C[C@H]2O[C@H](OC)[C@@]34OC(C)C3C(C)C[C@H]4[C@H]2C)=N\O)[C@H](C)[C@@H]2CC(C)C3C(C)O[C@@]312 (stereo partly drawn) [compound 28, Dimer Oxime] | – | – | 52.5 days | >99.9% | – |
| C[C@H]1[C@@H](/C(C[C@H]2O[C@@H]3O[C@@]4(C)CC[C@H]5[C@H](C)CC[C@@H]([C@H]2C)[C@@]35OO4)=N\OCC2CC2)O[C@@H]2O[C@@]3(C)CC[C@H]4[C@H](C)CC[C@@H]1[C@@]24OO3 [compound 31, dimer O-methylcyclopropyl oxime] | >99.9% | 41 days | – | – | – |
| C[C@H]1[C@@H](/C(C[C@H]2O[C@@H]3O[C@@]4(C)CC[C@H]5[C@H](C)CC[C@@H]([C@H]2C)[C@@]35OO4)=N\OC(C)(C)C)O[C@@H]2O[C@@]3(C)CC[C@H]4[C@H](C)CC[C@@H]1[C@@]24OO3 [compound 33, dimer tert-butyl oxime] | >99.9% | 23.8 days | – | – | – |
| C#CCO/N=C(/C[C@H]1O[C@@H]2O[C@@]3(C)CC[C@H]4[C@H](C)CC[C@@H]([C@H]1C)[C@@]24OO3)[C@H]1O[C@@H]2O[C@@]3(C)CC[C@H]4[C@H](C)CC[C@@H]([C@H]1C)[C@@]24OO3 [compound 34, dimer propargyl oxime] | >99.9% | 53.8 days | 60.0 days | >99.9% | inhibition in vivo at 6 mg/kg ([1]; Plasmodium berghei, in Mus musculus, po, Table 2, as printed: trioxane 6 mg/kg, adjuvant none, dose 18, read-out: % parasitemia suppression): > 99.9%; survival after infection avg ([1]; Table 2, as printed: trioxane 6 mg/kg, adjuvant none, dose 18): 46.8 days; % parasitemia suppression [1, 7]: >99.9%; survival after infection avg [1, 7]: 60.0 days; survival after infection ([1]; Table 2, trioxane 6 mg/kg + lumefantrine 18 mg/kg, single oral dose): 60 days; survival after infection avg [1, 8]: 46.8 days; cure of mice [1, 9]: complete cures of all four mice; average survival time of all mice receiving the compound [1]: 55.1 days; cure of mice ([1]; two separate experiments, in combination with two different adjuvants (mefloquine and lumefantrine)): complete cure |
| C[C@H]1[C@@H](/C(C[C@H]2O[C@@H]3O[C@@]4(C)CC[C@H]5[C@H](C)CC[C@@H]([C@H]2C)[C@@]35OO4)=N\OC(=O)N(C)C)O[C@@H]2O[C@@]3(C)CC[C@H]4[C@H](C)CC[C@@H]1[C@@]24OO3 [compound 35, dimer oxime dimethylcarbamate] | – | – | 51.8 days | >99.9% | – |
| CC(=O)O/N=C(/C[C@H]1O[C@@H]2O[C@@]3(C)CC[C@H]4[C@H](C)CC[C@@H]([C@H]1C)[C@@]24OO3)[C@H]1O[C@@H]2O[C@@]3(C)CC[C@H]4[C@H](C)CC[C@@H]([C@H]1C)[C@@]24OO3 [compound 36, dimer oxime acetate] | – | – | 27.3 days | >99.9% | – |
